Experimental data from PMC10108740 (Journal of Medicinal Chemistry, 2023).

Assays:
[1] = test system: SARS-CoV-2 WA1 (USA-WA1/2020); assay: Antiviral immunofluorescence assay, SARS-CoV-2 WA1 in Calu-3 cells; type: cell-based; settings: for EC50: Severe acute respiratory syndrome coronavirus 2, Calu-3, WA1, Calu-3 cells, read-out: EC50; for EC50 / EC90: immunofluorescence, 44 hpi, mean ± SD; for EC90: Severe acute respiratory syndrome coronavirus 2, WA1, Calu-3 cells; for fold lower EC50 compared to V2043: Calu-3 and Huh7.5 cells; for fold more active than RDV: Calu-3 cells, based on EC50; for fold more active than 116-N1, the parent nucleoside of VV116: own EC50 compared with 116-N1 of ref 15
in vitro [2] = settings: human
SARS-CoV-2 (WA-1) [3] = assay: Antiviral immunofluorescence assay, SARS-CoV-2 WA1 in Huh7.5 cells; type: cell-based; settings: Severe acute respiratory syndrome coronavirus 2, WA-1, Huh7.5 cells, immunofluorescence, 48 hpi; for EC50: read-out: EC50; for EC90: read-out: EC90
in vitro [4] = assay: in vitro
Description: Cells were seeded as per SARS-CoV-2 infection studies in opaque walled 96-well cell culture plates and incubated overnight for Huh7.5 and Vero-TMPRSS2 cells and for an additional 24h for Calu-3 cells. Compounds or controls were added at the indicated concentrations. Cells were incubated for 48h for Huh7.5 cells, 40–44h for Calu-3 cells, or 30–32h for Vero-TMPRSS2 cells at 37 °C and 5% CO2, an equal volume of CellTiter-Glo reagent (Cat. #G7570, Promega) or CellTiter-Glo 2.0 reagent (Cat. #G9241, Promega) was added and mixed, and luminescence was recorded on a Veritas Microplate Luminometer (Turner BioSystems) according to manufacturer recommendations. Percent viability was calculated compared to DMSO controls, and CC50 values were calculated using Prism 9.
Calu-3 cells were treated for 44h (A), Huh7.5 cells were treated for 48h (B), and Vero-
TMPRSS2 cells were treated for 38h (C) as in infection assays for each cell type. Cell viability
was measured by CellTiter-Glo assay and reported as % cell viability relative to DMSO controls.
Best fit curves calculated in Graphpad Prism 9 were used
to compute cytotoxic concentration 50% (CC50) values in Tables 1-3.

SARS-CoV-2 (WA-1) [5] = assay: Antiviral immunofluorescence assay, SARS-CoV-2 WA1 in Vero-TMPRSS2 cells; type: cell-based; settings: for EC50: Severe acute respiratory syndrome coronavirus 2, Vero/TMPRSS2; for EC90: Severe acute respiratory syndrome coronavirus 2, WA-1, Vero-TMPRSS2 cells, immunofluorescence, 38 hpi
in vitro [6] = settings: human; remark: listed apart in the source

SMILES	EC50 [1] [nM]	EC90 [1] [nM]	CC50 at 44 h (in vitro [2]) [nM]	EC50 (SARS-CoV-2 (WA-1) [3]) [nM]	EC90 (SARS-CoV-2 (WA-1) [3]) [nM]	CC50 (in vitro [4]; chlorocebus aethiops) [nM]	EC50 (SARS-CoV-2 (WA-1) [5]) [nM]	EC90 (SARS-CoV-2 (WA-1) [5]) [nM]	CC50 at 48 h (in vitro [6]) [nM]	CC50 (in vitro [4]; African green monkey) [nM]	fold lower EC50 compared to V2043 [1]	fold more active than RDV [1] [fold]	fold more active than 116-N1, the parent nucleoside of VV116 [1] [fold]
CCCCCCCCCCCCCCCCCCOC[C@@H](COP(=O)(O)OC[C@H]1O[C@@](C#N)(c2ccc3c(N)ncnn23)[C@H](O)[C@@H]1O)OCc1ccccc1 [Compound 9b, ((2R,3S,4R,5R)-5-(4-Aminopyrrolo[2,1-f][1,2,4]triazin-7-yl)-5-cyano-3,4-dihydroxytetrahydrofuran-2-yl)methyl ((S)-2-(benzyloxy)-3-(octadecyloxy)propyl) hydrogen phosphate]	160 ± 24	625 ± 195	93400	–	–	–	–	–	–	–	–	–	–
CCCCCCCCCCCCCCCCCCOCC(COP(=O)(O)OC[C@H]1O[C@@](C#N)(c2ccc3c(N)ncnn23)[C@H](O)[C@@H]1O)OCc1ccccc1 (stereo partly drawn) [Compound 9c, ((2R,3S,4R,5R)-5-(4-aminopyrrolo[2,1-f][1,2,4]triazin-7-yl)-5-cyano-3,4-dihydroxytetrahydrofuran-2-yl)methyl ((R,S)-2-(benzyloxy)-3-(octadecyloxy)propyl) hydrogen phosphate]	172 ± 78	1070 ± 1040	92100	175 ± 120	519 ± 256	> 100000	238 ± 74	613 ± 84	64600	–	–	–	–
CCCCCCCCCCCCCCCCCCOC[C@H](COP(=O)(O)OC[C@H]1O[C@@](C#N)(c2ccc3c(N)ncnn23)[C@H](O)[C@@H]1O)OCc1cccc(F)c1 [Compound 9d, ((2R,3S,4R,5R)-5-(4-Aminopyrrolo[2,1-f][1,2,4]triazin-7-yl)-5-cyano-3,4-dihydroxytetrahydrofuran-2-yl)methyl ((R)-2-((3-fluorobenzyl)oxy)-3-(octadecyloxy)propyl) hydrogen phosphate]	224 ± 129	506 ± 204	94700	191 ± 77	488 ± 199	> 100000	271 ± 22	629 ± 61	75000	–	–	–	–
CCCCCCCCCCCCCCCCCCOC[C@H](COP(=O)(O)OC[C@H]1O[C@@](C#N)(c2ccc3c(N)ncnn23)[C@H](O)[C@@H]1O)OCc1cccc(C(F)(F)F)c1 [Compound 9e, ((2R,3S,4R,5R)-5-(4-Aminopyrrolo[2,1-f][1,2,4]triazin-7-yl)-5-cyano-3,4-dihydroxytetrahydrofuran-2-yl)methyl ((R)-3-(octadecyloxy)-2-((3-(trifluoromethyl)benzyl)oxy)propyl) hydrogen phosphate]	160 ± 93	316 ± 83	66900	–	–	–	–	–	–	–	–	–	–
CCCCCCCCCCCCCCCCCCOC[C@H](COP(=O)(O)OC[C@H]1O[C@@](C#N)(c2ccc3c(N)ncnn23)[C@H](O)[C@@H]1O)OCc1ccc(C(F)(F)F)cc1 [Compound 9f, ((2R,3S,4R,5R)-5-(4-Aminopyrrolo[2,1-f][1,2,4]triazin-7-yl)-5-cyano-3,4-dihydroxytetrahydrofuran-2-yl)methyl ((R)-3-(octadecyloxy)-2-((4-(trifluoromethyl)benzyl)oxy)propyl) hydrogen phosphate]	177 ± 12	408 ± 181	90200	–	–	–	–	–	–	–	–	–	–
CCCCCCCCCCCCCCCCCCOC[C@H](COP(=O)(O)OC[C@H]1O[C@@](C#N)(c2ccc3c(N)ncnn23)[C@H](O)[C@@H]1O)OCCCCCCCC [Compound 9h, ((2R,3S,4R,5R)-5-(4-Aminopyrrolo[2,1-f][1,2,4]triazin-7-yl)-5-cyano-3,4-dihydroxytetrahydrofuran-2-yl)methyl ((R)-3-(octadecyloxy)-2-(octyloxy)propyl) hydrogen phosphate]	391 ± 39	2500 ± 1240	> 100000	564 ± 252	3360 ± 2860	> 100000	775 ± 245	1790 ± 140	> 100000	–	–	–	–
CCCCCCCCCCCCCCCCCCOC[C@H](COP(=O)(O)OC[C@H]1O[C@@](C#N)(c2ccc3c(N)ncnn23)[C@H](O)[C@@H]1O)OCCC1CCCCC1 [Compound 9i, ((2R,3S,4R,5R)-5-(4-Aminopyrrolo[2,1-f][1,2,4]triazin-7-yl)-5-cyano-3,4-dihydroxytetrahydrofuran-2-yl)methyl ((R)-2-(2-cyclohexylethoxy)-3-(octadecyloxy)propyl) hydrogen phosphate]	144 ± 20	1830 ± 1040	98700	92 ± 26	1310 ± 310	–	296 ± 10	582 ± 14	69800	> 100000	–	–	–
CCCCCCCCCCCCCCCCCCOC[C@H](COP(=O)(O)OC[C@H]1O[C@@](C#N)(c2ccc3c(N)ncnn23)[C@H](O)[C@@H]1O)OCc1ccc(C#N)cc1 [Compound 9j, ((2R,3S,4R,5R)-5-(4-Aminopyrrolo[2,1-f][1,2,4]triazin-7-yl)-5-cyano-3,4-dihydroxytetrahydrofuran-2-yl)methyl ((R)-2-((4-cyanobenzyl)oxy)-3-(octadecyloxy)propyl) hydrogen phosphate]	43 ± 13	82 ± 22	60200	24 ± 2	70 ± 10	–	–	–	47200	–	3–5.5 fold	5.3	11.5
CCCCCCCCCCCCCCCCCCOC[C@H](COP(=O)(O)OC[C@H]1O[C@@](C#N)(c2ccc3c(N)ncnn23)[C@H](O)[C@@H]1O)OCc1cccc(C#N)c1 [Compound 9k, ((2R,3S,4R,5R)-5-(4-Aminopyrrolo[2,1-f][1,2,4]triazin-7-yl)-5-cyano-3,4-dihydroxytetrahydrofuran-2-yl)methyl ((R)-2-((3-cyanobenzyl)oxy)-3-(octadecyloxy)propyl) hydrogen phosphate]	34 ± 7	65 ± 36	61600	24 ± 6	77 ± 17	–	–	–	49600	–	3–5.5 fold	6.7	9.1
CCCCCCCCCCCCCCCCCCOC[C@H](COP(=O)(O)OC[C@H]1O[C@@](C#N)(c2ccc3c(N)ncnn23)[C@H](O)[C@@H]1O)OCc1ccccc1C#N [Compound 9l, ((2R,3S,4R,5R)-5-(4-Aminopyrrolo[2,1-f][1,2,4]triazin-7-yl)-5-cyano-3,4-dihydroxytetrahydrofuran-2-yl)methyl ((R)-2-((2-cyanobenzyl)oxy)-3-(octadecyloxy)propyl) hydrogen phosphate]	91 ± 25	186 ± 47	82800	102 ± 17	281 ± 30	–	–	–	> 100000	–	–	–	–
CCCCCCCCCCCCCCCCOC[C@H](COP(=O)(O)OC[C@H]1O[C@@](C#N)(c2ccc3c(N)ncnn23)[C@H](O)[C@@H]1O)OCc1ccccc1 [Compound 11a, ((2R,3S,4R,5R)-5-(4-Aminopyrrolo[2,1-f][1,2,4]triazin-7-yl)-5-cyano-3,4-dihydroxytetrahydrofuran-2-yl)methyl ((R)-2-(benzyloxy)-3-(hexadecyloxy)propyl) hydrogen phosphate]	95 ± 12	716 ± 270	88700	131 ± 66	268 ± 221	> 100000	402 ± 84	798 ± 154	> 100000	–	–	–	–
